For data set [1] the following is noted: cited from earlier work.
Data set [2] can be described thus: Creaming / visual shelf stability of emulsions (serum height). The format is physicochemical. As to conditions: 10 wt % oil; for ability of the oil to yield stable emulsions: 1 wt % drug; for time to begin creaming: emulsions of 1 wt % propofol, 1 wt % Pluronic F68. Here is the method: About 10 mL of each emulsion was placed in a 20 mL vial and left undisturbed on a lab bench to explore each emulsion's stability to creaming. Creaming is an instability mechanism where lower density oil droplets rise to the top of the system forming a cream layer with a more clear serum layer below. The emulsions were photographed periodically with a digital camera (Panasonic DMC FH25), and the photographs were analyzed using image processing software (ImageJ) to quantify the degree of creaming. The height of each emulsion phase was measured in number of pixels, and the percentage serum was calculated from the serum height divided by the total emulsion height. The time at which creaming was first observed was used as a measure of each emulsion's stability, and the time at which the emulsion had completely creamed was noted if applicable. A creaming time longer than two years is desired to be considered a commercially viable pharmaceutical emulsion.
Preliminary screening of emulsion stability was conducted by leaving emulsions undisturbed on a shelf and making visual observations at various times. The initial images of the two formulations for each of the five excipient oils are included in the top row of FIG. 3.
Images of the emulsions were digitally measured to determine the serum height as a function of time for all the emulsion systems (FIG. 3). A stable system should not separate into cream and serum phases, so the time at which serum is first observed is considered to be an approximate indicator of the degree of stability.

Data set [3] is described as follows: Oil-water partitioning of propofol in equilibrated bulk excipient oil/water mixtures. The format is physicochemical. Conditions: for Cfree: propofol in aqueous phase, 1 wt % drug. As to the method: Oil-water partition coefficients were calculated by equilibrating a mixture of propofol, water, and oil with mass fractions fdrug, faq, and foil, respectively. The drug loading was kept constant at 1 wt %, while oil loadings were chosen to be 5 or 15 wt %. Additional experiments were performed at 10 wt % excipient oil loading for ethyl butyrate and soybean oil because of the major focus on these oils in this work. The water phase was separated and assayed for propofol concentration (cf), and the partition coefficient was obtained from a mass balance, i.e., Mdrug=Vaqcf+KVoilcf (2) where K is the oil-water partition coefficient, Mdrug, Vaq and Voil are the […] and volumes of water and oil, respectively in the system. The mass balance yields the following equation for K:
[formula] where ρaq and ρoil are the densities of water and oil, respectively. Table 2 lists the molecular weight and densities of various oils considered, along with measured aqueous phase drug concentrations and calculated logarithmic oil-water partition coefficients.

The nature of data set [4]: Propofol partitioning in binary mixtures of excipient oils.
Method: Experiments were performed to measure the drug partitioning of binary mixtures of excipient oils. 1 wt % drug loading and 10 wt % total excipient oil loading were maintained as the experimental basis of all the binary systems formed to compare with Diprivan. The relative fractions of excipient oil were varied between 100 wt % ethyl butyrate and 100 wt % soybean oil. […] These experiments were repeated by replacing soybean oil with olive oil.
Where [5] appears, read: oil-water partition coefficient of propofol, 5% excipient oil.
[6] abbreviates: oil-water partition coefficient of propofol, 15% excipient oil.

This is an account of results in patent US11963936B2, “Method of manufacturing stable emulsions and compositions containing the same” (UNIVERSITY OF FLORIDA RESEARCH FOUNDATION, INC., priority 2013, dated 2024).

In the case of `CCCCCCCCCCCCCCCCCC(=O)O` [stearic acid], in data set [1], the pKa entry is “about 4.9”.

Consider `CCCCCCCCCCCCCCCC(=O)OC(C)C` [Isopropyl palmitate (IP), Isopropyl palmitate], for which the “ability of the oil to yield stable emulsions” value (“ability of the oil” for short) in data set [2] is given as “did not yield stable emulsions”. Also, the “time to begin creaming” value in data set [2] is “several days or weeks”. The results for the Log10K in data set [3] (setting [5]) and in data set [3] (setting [6]) were 3.71 and 4.01, respectively. In addition, the Cfree was found to be 28.1 mg/L in data set [3] (5% excipient oil) and 5.17 mg/L in data set [3] (15% excipient oil).

Consider `CCCCCCCCCCCCCC(=O)OC(C)C` [Isopropyl myristate (IM), Isopropyl myristate], for which the “ability of the oil” value in data set [2] is given as “did not yield stable emulsions”. In data set [2], the “time to begin creaming” value was “several days or weeks”. Besides, the Log10K in data set [3] (setting [5]) was 3.92; in data set [3] (setting [6]) it was 4.08. The results for the Cfree in data set [3] (5% excipient oil) and in data set [3] (15% excipient oil) were 16.9 mg/L and 4.39 mg/L, respectively.

Take `CCCC(=O)OCC` [Ethyl butyrate (EB), Ethyl butyrate]: in data set [4], the “partition coefficient of propofol compared to soybean oil” value was “about 4 fold”. Besides, the “ability of the oil” value in data set [2] is “did not yield stable emulsions”. Also, the “log(K)” value in data set [3] (oil-water partition coefficient of propofol) is on record as 4.3. Moreover, the Log10K in data set [3] (setting [5]) was found to be 4.33; in data set [3] (oil-water partition coefficient of propofol, 10% excipient oil), 4.32; in data set [3] (setting [6]), 4.35. Further, the Cfree in data set [3] (5% excipient oil) is 6.93 mg/L; in data set [3] (10% excipient oil), 4.60 ± 1.83 mg/L; in data set [3] (15% excipient oil) it was 2.48 mg/L.

Consider `CCCCCCCC(=O)O` [Octanoic acid (OA), Octanoic acid], for which the “ability of the oil” value in data set [2] is “did not yield stable emulsions”. Besides, the Log10K in data set [3] (setting [5]) amounted to 3.65; in data set [3] (setting [6]), 3.76. In addition, the values for the Cfree in data set [3] (5% excipient oil) and in data set [3] (15% excipient oil) were 33.5 mg/L and 10.0 mg/L, respectively.
